Laboratory results reported in patent publication US20230146455A1, “TREATMENT OF INFLAMMATORY DISEASES WITH PEPTIDES AND PHARMACEUTICAL COMPOSITIONS” (Yuyu Pharma, Inc., priority 2020, published 2023).
Values joined by “and” are separate entries in the source; they are usually repeats but may differ in a detail not shown here. Identical values can stand only once. Like-named read-outs stand apart in the source and are kept apart here. Where a SMILES comes first, the peptide text is derived from it. [ ]: non-standard residue; d: D form. Hyp = O=C(O)[C@@H]1C[C@@H](O)CN1

What was measured:
Caco-2 cells monolayer = assay: Apparent permeability, 21 day cultured Caco-2 cell monolayer, bi-directional (Example 7); assay type: in vitro ADME
Experimental: (§1) 10 mM stock solution of test compound was prepared in DMSO. 10 mM stock was diluted with 100% DMSO to prepare 0.2 mM, 0.2 mM stock was diluted with HBSS buffer to a final concentration of 2 μM.
(§2) Add 250 μL of DMEM to the basal compartment of 96 well multi-screen Caco-2 plates and seed 12000 cells/well (0.16×10^6 cells/ml) in all the apical wells required and 2 wells with only media as blank without cells. Place the Caco-2 plate in CO2 incubator at 37° C. for proliferation of cells.
(§3) The utilized media was replenished every alternate day by fresh medium. On 21st day, utilized medium was removed and washed twice with HBSS Buffer and incubated with HBSS buffer 30 min in incubator and initiated the assay.
(§4) 75 μL of test compound was added to apical wells and 250 μL of HBSS buffer with 1% DMSO was added to basal wells. Samples were collected at 120 min and processed as stated below.
(§5) 250 μL of test compound was added to basal wells and 75 μL of HBSS buffer with 1% DMSO was added to apical wells. Samples were collected at 120 min and processed as stated below.
(§6) Single point calibration curve in HBSS buffer was used. 100 μL of supernatant was diluted with 200 μL of water and submitted for LC-MS/MS analysis.
(§7) Efflux ratio=Papp of basal to apical samples/Papp of apical to basal samples
(§8) Recovery: {(dQ of Apical+dQ of Basal)/Standard dQ}*100

[1] = as above; assay type: in vitro ADME; conditions: Caco-2, 2 μM, 120 minutes
Experimental: as §1, §2, §3, §4, §5, §6, §7, §8

CCL3/MIP-1 alpha = assay: Example 9 Luminex, LPS hPBMCs: CCL3/MIP-1 alpha; assay type: cell-based, human
Experimental: Treatment Human PBMCs were pretreated with YY-101, YDE-011 and YDE-043 or reference compound; Xiidra® at various concentration (ranging from 1 nM to 100 uM) for 2 h before stimulation. An equal volume of 0.5% DMSO was used as a vehicle control. Then, the cells were treated with LPS at 5 ug/ml. The supernatants from treated cells were harvested at 24 h and placed in a 96 well for Luminex cytokine & chemokine profiling using a Luminex 200 multiplex assay (Luminex; R&D system, USA).
The main study arm with triplicate wells per group in a 24-well plate: • 1. Blank • 2. PBMC: 0.5% DMSO • 3. PBMC+LPS (5 ug/ml) • 4. PBMC+YY-101 100 uM • 5. PBMC+YY-101 10 uM • 6. PBMC+YY-101 1 uM • 7. PBMC+YY-101 0.1 uM • 8. PBMC+YY-101 0.01 uM • 9. PBMC+LPS (5 ug/ml)+Xiidra®100 uM • 10. PBMC+LPS (5 ug/ml)+Xiidra® 10 uM • 11. PBMC+LPS (5 ug/ml)+Xiidra® 1 uM • 12. PBMC+LPS (5 ug/ml)+Xiidra®0.1 uM • 13. PBMC+LPS (5 ug/ml)+Xiidra®0.01 uM • 14. PBMC+LPS (5 ug/ml)+Xiidra®0.001 uM • 15. PBMC+LPS (5 ug/ml)+YY-101 100 uM • 16. PBMC+LPS (5 ug/ml)+YY-101 10 uM • 17. PBMC+LPS (5 ug/ml)+YY-101 1 uM • 18. PBMC+LPS (5 ug/ml)+YY-101 0.1 uM • 19. PBMC+LPS (5 ug/ml)+YY-101 0.01 uM • 20. PBMC+LPS (5 ug/ml)+YY-101 0.001 uM • 21. PBMC+LPS (5 ug/ml)+YDE-011 100 uM • 22. PBMC+LPS (5 ug/ml)+YDE-011 10 uM • 23. PBMC+LPS (5 ug/ml)+YDE-011 1 uM • 24. PBMC+LPS (5 ug/ml)+YDE-011 0.1 uM • 25. PBMC+LPS (5 ug/ml)+YDE-011 0.01 uM • 26. PBMC+LPS (5 ug/ml)+YDE-011 0.001 uM • 27. PBMC+LPS (5 ug/ml)+YDE-043 100 uM • 28. PBMC+LPS (5 ug/ml)+YDE-043 10 uM • 29. PBMC+LPS (5 ug/ml)+YDE-043 1 uM • 30. PBMC+LPS (5 ug/ml)+YDE-043 0.1 uM • 31. PBMC+LPS (5 ug/ml)+YDE-043 0.01 uM • 32. PBMC+LPS (5 ug/ml)+YDE-043 0.001 uM
Multiplex assay was used to measure 30 cytokines and chemokines. The 1:2, 1:10 and 1:200 diluted cell supernatant and serial dilution of the standard were dispensed into a 96 well plate at 50 ul/well. Then, the pre-mixed cocktail of antibody-coated magnetic beads was dispensed at 50 ul/well and incubated at room temperature for 2 h in a horizontal orbital microplate shaker at 800±500 rpm. The beads were washed using a magnetic device to prevent loss. The biotin-antibody was dispensed in 50 ul of each well and incubated at room temperature for 1 h in a shaker at 800±500 rpm. After washing, streptavidin-PE was added at 50 ul/well and incubated at room temperature for 30 min in a shaker under the same conditions. Finally, after washing, wash buffer (100 ul/well) was added to the plate and incubated in a shaker for 2 min. The Luminex™ 200 setting were set according to the manufacturer's protocol. The data was calculated with a standard five-parameter logistic nonlinear regression analysis of the data (xPonent software 4.2, USA). The levels of cytokine/chemokine are normalized to the live cell counts (1×10^5 cells/mL) and presented as concentrations per mL (pg/mL or ng/mL).

[2] = PBMC + LPS(5 ug/ml) + test article 0.001 uM, Mean
[3] = PBMC + LPS(5 ug/ml) + test article 0.001 uM, individual replicates
[4] = PBMC + LPS(5 ug/ml) + test article 0.01 uM, Mean
[5] = PBMC + LPS(5 ug/ml) + test article 0.01 uM, individual replicates
[6] = PBMC + LPS(5 ug/ml) + test article 0.1 uM, Mean
[7] = PBMC + LPS(5 ug/ml) + test article 0.1 uM, individual replicates
[8] = PBMC + LPS(5 ug/ml) + test article 1 uM, Mean
[9] = PBMC + LPS(5 ug/ml) + test article 1 uM, individual replicates
[10] = PBMC + LPS(5 ug/ml) + test article 10 uM, Mean
[11] = PBMC + LPS(5 ug/ml) + test article 10 uM, individual replicates
[12] = PBMC + LPS(5 ug/ml) + test article 100 uM, Mean
[13] = PBMC + LPS(5 ug/ml) + test article 100 uM, individual replicates

Structure (SMILES): CC(C)C[C@H](NC(=O)[C@H](CCC(N)=O)NC(=O)CNC(=O)[C@@H]1C[C@@H](O)CN1)C(=O)NCC(=O)O [YDE-043] (H-[Hyp]GQLG-OH; N-terminus and C-terminus assumed)
- Classification (Caco-2 Permeability) (Caco-2 cells monolayer): LOW
- recovery ([1]; read-out: A to B % Recovery): 34%
- recovery ([1]; read-out: B to A % Recovery): 67.2%
- Concentration (CCL3/MIP-1 alpha; [2]): 7935.0 pg/mL
- conc/live cell (CCL3/MIP-1 alpha; [2]): 1611.4 pg/10^5
- Concentration (CCL3/MIP-1 alpha; [3]): 7637.9 pg/mL and 8204.6 pg/mL and 7962.5 pg/mL
- conc/live cell (CCL3/MIP-1 alpha; [3]): 1735.9 pg/10^5 and 1367.4 pg/10^5 and 1731.0 pg/10^5
- Concentration (CCL3/MIP-1 alpha; [4]): 7883.4 pg/mL
- conc/live cell (CCL3/MIP-1 alpha; [4]): 1505.4 pg/10^5
- Concentration (CCL3/MIP-1 alpha; [5]): 7796.2 pg/mL and 7985.9 pg/mL and 7868.0 pg/mL
- conc/live cell (CCL3/MIP-1 alpha; [5]): 1732.5 pg/10^5 and 1210.0 pg/10^5 and 1573.6 pg/10^5
- Concentration (CCL3/MIP-1 alpha; [6]): 7645.0 pg/mL
- conc/live cell (CCL3/MIP-1 alpha; [6]): 1418.9 pg/10^5
- Concentration (CCL3/MIP-1 alpha; [7]): 7513.4 pg/mL and 7625.5 pg/mL and 7796.2 pg/mL
- conc/live cell (CCL3/MIP-1 alpha; [7]): 1502.7 pg/10^5 and 1361.7 pg/10^5 and 1392.2 pg/10^5
- Concentration (CCL3/MIP-1 alpha; [8]): 7636.6 pg/mL
- conc/live cell (CCL3/MIP-1 alpha; [8]): 1442.9 pg/10^5
- Concentration (CCL3/MIP-1 alpha; [9]): 7962.5 pg/mL and 6891.7 pg/mL and 8055.7 pg/mL
- conc/live cell (CCL3/MIP-1 alpha; [9]): 1372.8 pg/10^5 and 1435.8 pg/10^5 and 1520.0 pg/10^5
- Concentration (CCL3/MIP-1 alpha; [10]): 7606.3 pg/mL
- conc/live cell (CCL3/MIP-1 alpha; [10]): 1409.0 pg/10^5
- Concentration (CCL3/MIP-1 alpha; [11]): 7500.8 pg/mL and 7450.2 pg/mL and 7868.0 pg/mL
- conc/live cell (CCL3/MIP-1 alpha; [11]): 1442.5 pg/10^5 and 1379.7 pg/10^5 and 1405.0 pg/10^5
- Concentration (CCL3/MIP-1 alpha; [12]): 7769.2 pg/mL
- conc/live cell (CCL3/MIP-1 alpha; [12]): 1234.0 pg/10^5
- Concentration (CCL3/MIP-1 alpha; [13]): 7962.5 pg/mL and 7575.9 pg/mL
- conc/live cell (CCL3/MIP-1 alpha; [13]): 1284.3 pg/10^5 and 1183.7 pg/10^5
